According to PubChem BioAssay (NCI):
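Assay format: 96-well plates, 48-hour exposure. TGI denotes the concentration required for complete inhibition of growth.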

Tests used:
Assay in all cases: DTP human tumour cell line panel, 48 h
[1] = test system: 786-0 renal
[2] = test system: A498 renal
[3] = test system: A549 NSCLC
[4] = test system: ACHN renal
[5] = test system: BT-549 breast
[6] = test system: CAKI-1 renal
[7] = test system: CCRF-CEM leukemia
[8] = test system: COLO 205 colon
[9] = test system: DU-145 prostate
[10] = test system: EKVX NSCLC
[11] = test system: HCC-2998 colon
[12] = test system: HCT-116 colon
[13] = test system: HCT-15 colon
[14] = test system: HL-60(TB) leukemia
[15] = test system: HOP-62 NSCLC
[16] = test system: HS 578T breast
[17] = test system: HT29 colon
[18] = test system: IGROV1 ovarian
[19] = test system: K-562 leukemia
[20] = test system: KM12 colon
[21] = test system: LOX IMVI melanoma
[22] = test system: M14 melanoma
[23] = test system: MALME-3M melanoma
[24] = test system: MCF7 breast
[25] = test system: MDA-MB-231 breast
[26] = test system: MDA-MB-435
[27] = test system: MDA-N
[28] = test system: MOLT-4 leukemia
[29] = test system: NCI-H226 lung
[30] = test system: NCI-H460 lung
[31] = test system: NCI-H522 lung
[32] = test system: NCI/ADR-RES ovarian
[33] = test system: OVCAR-3 ovarian
[34] = test system: OVCAR-4 ovarian
[35] = test system: OVCAR-5 ovarian
[36] = test system: OVCAR-8 ovarian
[37] = test system: PC-3 prostate
[38] = test system: RPMI-8226 leukemia
[39] = test system: RXF 393 renal
[40] = test system: SF-268 CNS
[41] = test system: SF-539 CNS
[42] = test system: SK-MEL-2 melanoma
[43] = test system: SK-MEL-28 melanoma
[44] = test system: SK-MEL-5 melanoma
[45] = test system: SK-OV-3 ovarian
[46] = test system: SN12C renal
[47] = test system: SNB-19 CNS
[48] = test system: SNB-75 CNS
[49] = test system: SR leukemia
[50] = test system: SW-620 colon
[51] = test system: T-47D breast
[52] = test system: TK-10 renal
[53] = test system: U251 CNS
[54] = test system: UACC-257 melanoma
[55] = test system: UACC-62 melanoma
[56] = test system: UO-31 renal
[57] = test system: NCI-H23 lung
[58] = test system: SF-295 CNS
[59] = test system: HOP-92 NSCLC

Cc1cc(S(=O)(=O)Nc2nc(N)n(-c3ccccn3)n2)c(S)cc1Cl
TGI [1]: > 100 µM
TGI [2]: > 100 µM
TGI [3]: > 100 µM
TGI [4]: > 100 µM
TGI [5]: > 100 µM
TGI [6]: > 100 µM
TGI [7]: > 100 µM
TGI [8]: > 100 µM
TGI [9]: > 100 µM
TGI [10]: > 100 µM
TGI [11]: > 100 µM
TGI [12]: > 100 µM
TGI [13]: > 100 µM
TGI [14]: > 100 µM
TGI [15]: > 100 µM
TGI [16]: > 100 µM
TGI [17]: > 100 µM
TGI [18]: > 100 µM
TGI [19]: > 100 µM
TGI [20]: > 100 µM
TGI [21]: > 100 µM
TGI [22]: > 100 µM
TGI [23]: > 100 µM
TGI [24]: > 100 µM
TGI [25]: > 100 µM
TGI [26]: > 100 µM
TGI [27]: > 100 µM
TGI [28]: > 100 µM
TGI [29]: > 100 µM
TGI [30]: > 100 µM
TGI [31]: > 100 µM
TGI [32]: > 100 µM
TGI [33]: > 100 µM
TGI [34]: > 100 µM
TGI [35]: > 100 µM
TGI [36]: > 100 µM
TGI [37]: > 100 µM
TGI [38]: > 100 µM
TGI [39]: > 100 µM
TGI [40]: > 100 µM
TGI [41]: > 100 µM
TGI [42]: > 100 µM
TGI [43]: > 100 µM
TGI [44]: > 100 µM
TGI [45]: > 100 µM
TGI [46]: > 100 µM
TGI [47]: > 100 µM
TGI [48]: > 100 µM
TGI [49]: > 100 µM
TGI [50]: > 100 µM
TGI [51]: > 100 µM
TGI [52]: > 100 µM
TGI [53]: > 100 µM
TGI [54]: > 100 µM
TGI [55]: > 100 µM
TGI [56]: > 100 µM

CCOC(=O)c1c(NC(=O)c2cccs2)sc2c1CCC2
TGI [1]: > 100 µM
TGI [2]: > 100 µM
TGI [3]: > 100 µM
TGI [4]: > 100 µM
TGI [5]: > 100 µM
TGI [6]: > 100 µM
TGI [7]: > 100 µM
TGI [8]: > 100 µM
TGI [9]: > 100 µM
TGI [10]: > 100 µM
TGI [12]: > 100 µM
TGI [13]: > 100 µM
TGI [14]: > 100 µM
TGI [15]: > 100 µM
TGI [16]: > 100 µM
TGI [17]: > 100 µM
TGI [18]: > 100 µM
TGI [19]: > 100 µM
TGI [20]: > 100 µM
TGI [22]: > 100 µM
TGI [24]: > 100 µM
TGI [25]: > 100 µM
TGI [27]: > 100 µM
TGI [28]: > 100 µM
TGI [29]: > 100 µM
TGI [57]: > 100 µM
TGI [30]: > 100 µM
TGI [32]: > 100 µM
TGI [33]: > 100 µM
TGI [35]: > 100 µM
TGI [36]: > 100 µM
TGI [37]: > 100 µM
TGI [38]: > 100 µM
TGI [39]: > 100 µM
TGI [40]: > 100 µM
TGI [58]: > 100 µM
TGI [41]: > 100 µM
TGI [42]: > 100 µM
TGI [44]: > 100 µM
TGI [46]: > 100 µM
TGI [47]: > 100 µM
TGI [48]: 26.2 µM
TGI [49]: > 100 µM
TGI [51]: > 100 µM
TGI [52]: > 100 µM
TGI [54]: > 100 µM
TGI [55]: > 100 µM
TGI [56]: > 100 µM

CCOC(=O)CCCNC(=O)CCCCC(=O)N(C)C
TGI [1]: > 100 µM
TGI [2]: > 100 µM
TGI [3]: > 100 µM
TGI [4]: > 100 µM
TGI [5]: > 100 µM
TGI [6]: > 100 µM
TGI [7]: > 100 µM
TGI [8]: > 100 µM
TGI [9]: > 100 µM
TGI [10]: > 100 µM
TGI [11]: > 100 µM
TGI [12]: > 100 µM
TGI [13]: > 100 µM
TGI [14]: > 100 µM
TGI [15]: > 100 µM
TGI [59]: > 100 µM
TGI [16]: > 100 µM
TGI [17]: > 100 µM
TGI [18]: > 100 µM
TGI [19]: > 100 µM
TGI [20]: > 100 µM
TGI [21]: > 100 µM
TGI [22]: > 100 µM
TGI [23]: > 100 µM
TGI [24]: > 100 µM
TGI [25]: > 100 µM
TGI [26]: > 100 µM
TGI [27]: > 100 µM
TGI [28]: > 100 µM
TGI [29]: > 100 µM
TGI [57]: > 100 µM
TGI [30]: > 100 µM
TGI [31]: > 100 µM
TGI [32]: > 100 µM
TGI [33]: > 100 µM
TGI [35]: > 100 µM
TGI [36]: > 100 µM
TGI [37]: > 100 µM
TGI [38]: > 100 µM
TGI [40]: > 100 µM
TGI [58]: > 100 µM
TGI [41]: > 100 µM
TGI [42]: > 100 µM
TGI [43]: > 100 µM
TGI [44]: > 100 µM
TGI [45]: > 100 µM
TGI [46]: > 100 µM
TGI [47]: > 100 µM
TGI [50]: > 100 µM
TGI [51]: > 100 µM
TGI [52]: > 100 µM
TGI [53]: > 100 µM
TGI [54]: > 100 µM
TGI [55]: > 100 µM
TGI [56]: > 100 µM

Nc1cccnc1NCC1(CO)CCCC1
TGI [1]: > 100 µM
TGI [2]: > 100 µM
TGI [3]: > 100 µM
TGI [4]: > 100 µM
TGI [5]: > 100 µM
TGI [6]: > 100 µM
TGI [7]: > 100 µM
TGI [8]: > 100 µM
TGI [9]: > 100 µM
TGI [10]: > 100 µM
TGI [11]: > 100 µM
TGI [12]: > 100 µM
TGI [13]: > 100 µM
TGI [14]: > 100 µM
TGI [15]: > 100 µM
TGI [16]: > 100 µM
TGI [17]: > 100 µM
TGI [18]: > 100 µM
TGI [19]: > 100 µM
TGI [20]: > 100 µM
TGI [21]: > 100 µM
TGI [23]: > 100 µM
TGI [24]: > 100 µM
TGI [25]: > 100 µM
TGI [26]: > 100 µM
TGI [27]: > 100 µM
TGI [28]: > 100 µM
TGI [29]: > 100 µM
TGI [57]: > 100 µM
TGI [30]: > 100 µM
TGI [31]: > 100 µM
TGI [32]: > 100 µM
TGI [33]: > 100 µM
TGI [34]: > 100 µM
TGI [35]: > 100 µM
TGI [36]: > 100 µM
TGI [37]: > 100 µM
TGI [38]: > 100 µM
TGI [39]: > 100 µM
TGI [40]: > 100 µM
TGI [58]: > 100 µM
TGI [41]: > 100 µM
TGI [42]: > 100 µM
TGI [43]: > 100 µM
TGI [44]: > 100 µM
TGI [45]: > 100 µM
TGI [46]: > 100 µM
TGI [48]: > 100 µM
TGI [49]: > 100 µM
TGI [50]: > 100 µM
TGI [51]: > 100 µM
TGI [52]: > 100 µM
TGI [53]: > 100 µM
TGI [54]: > 100 µM
TGI [55]: > 100 µM
TGI [56]: > 100 µM
